From patent US20070134165A1 (Altana Pharma AG, priority 2004, published 2007)

Legend:
patients with asthma = assay: Double-blind, randomized, parallel group clinical study, ciclesonide vs budesonide once daily in the evening for 12 weeks; type: in vivo; details: for FEV1 / FVC / PEF / morning PEF: ex smokers, ITT, LSmeans
Source text: Another objective was to provide information on the safety and tolerability of ciclesonide.

[1] = cited from earlier work
asthma patients = details: ex-smokers, ciclesonide versus budesonide; cited from earlier work
[2] = tested on: glucocorticosteroid receptor; details: ratio versus ciclesonide; cited from earlier work
[3] = end of 12 weeks, CIC 200 μg or BUD 400 μg once daily in the evening

Row | SMILES | FEV1 (patients with asthma; [3]) [L] | FVC (patients with asthma; [3]) [L] | PEF (patients with asthma; [3]) [L/min] | morning PEF (patients with asthma; [3]) [L/min] | FEV1 (patients with asthma; start of treatment) [L] | FVC (patients with asthma; start of treatment) [L] | PEF (patients with asthma; start of treatment) [L/min] | morning PEF (patients with asthma; start of treatment) [L/min] | change in FEV1, subgroup analysis (patients with asthma; (ex-)smokers subgroup, after 12 weeks of treatment) | improvement in lung function compared to treatment with budesonide (patients with asthma; smoking asthmatic patients) | concentration of the drug in the lungs ([1]; in vivo) | metabolism by liver oxidases ([1]; in vivo) | plasma half-life ([1]; in vivo) | systemic activity ([1]; in vivo) | absorption after oral administration ([1]; oral) | subgroup analysis of FEV1 (asthma patients) | affinity to the glucocorticosteroid receptor relative to ciclesonide [2]
1 | CCCC1O[C@@H]2C[C@H]3[C@@H]4CCC5=CC(=O)C=C[C@]5(C)[C@H]4[C@@H](O)C[C@]3(C)[C@]2(C(=O)CO)O1 (stereo partly shown) [budesonide] | 2.602 | 3.385 | 357 | 391 | 2.339 | 3.146 | 310 | 370 | – | – | – | – | – | – | – | – | –
2 | CC(C)C(=O)OCC(=O)[C@@]12O[C@H](C3CCCCC3)O[C@@H]1C[C@H]1[C@@H]3CCC4=CC(=O)C=C[C@]4(C)[C@H]3[C@@H](O)C[C@@]12C [Ciclesonide, [11β,16α(R)]-16,17-[(Cyclohexylmethylene)bis(oxy)]-11-hydroxy-21-(2-methyl-1-oxo-propoxy)pregna-1,4-diene-3,20-dione] | 2.773 | 3.604 | 391 | 416 | 2.336 | 3.146 | 310 | 370 | statistically significant increases | superior improvements in lung function | high | very high | low | low | only moderately absorbed | trend for superiority of ciclesonide over budesonide | –
3 | C[C@]12C=CC(=O)C=C1CC[C@@H]1[C@@H]2[C@@H](O)C[C@@]2(C)[C@H]1C[C@H]1O[C@@H](C3CCCCC3)O[C@]12C(=O)CO (mixture of isomers) [desisobutyryl-ciclesonide, 16α,17-(22R,S)-cyclohexylmethylenedioxy-11β,21-dihydroxypregna-1,4-diene-3,20-dione] | – | – | – | – | – | – | – | – | – | – | – | – | – | – | – | – | approximately 100 times higher
